This is an account of results in patent US9556201B2, “Bicyclic pyridines and analogs as sirtuin modulators” (GLAXOSMITHKLINE LLC, priority 2009, dated 2017).

This assay has as its target T1, SIRT1 (Homo sapiens, UniProt Q96EB6).
T1 sequence (Q96EB6 1-747): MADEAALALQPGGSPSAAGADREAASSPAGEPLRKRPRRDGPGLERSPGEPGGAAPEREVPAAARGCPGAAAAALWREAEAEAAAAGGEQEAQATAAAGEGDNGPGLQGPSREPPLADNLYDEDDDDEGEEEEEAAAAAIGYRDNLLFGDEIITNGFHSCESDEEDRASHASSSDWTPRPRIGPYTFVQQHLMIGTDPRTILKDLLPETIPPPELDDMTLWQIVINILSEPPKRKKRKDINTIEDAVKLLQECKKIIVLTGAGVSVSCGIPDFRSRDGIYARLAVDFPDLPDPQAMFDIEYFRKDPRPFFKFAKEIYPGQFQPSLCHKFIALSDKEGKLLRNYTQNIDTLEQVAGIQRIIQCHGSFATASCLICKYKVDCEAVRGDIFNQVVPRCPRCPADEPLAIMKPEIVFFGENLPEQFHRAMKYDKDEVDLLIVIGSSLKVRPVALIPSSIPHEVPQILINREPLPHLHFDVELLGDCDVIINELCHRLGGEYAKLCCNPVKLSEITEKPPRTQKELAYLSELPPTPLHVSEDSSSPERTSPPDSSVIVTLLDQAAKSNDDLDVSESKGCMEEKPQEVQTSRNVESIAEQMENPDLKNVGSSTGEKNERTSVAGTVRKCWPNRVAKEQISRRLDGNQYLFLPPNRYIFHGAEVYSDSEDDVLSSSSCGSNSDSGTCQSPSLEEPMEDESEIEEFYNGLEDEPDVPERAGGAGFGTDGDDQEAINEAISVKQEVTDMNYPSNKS
Kind of assay: Mass spectrometry based assay to identify modulators of SIRT1 activity (deacetylation of p53-based acetylated peptide substrate). It counts as biochemical. To be noted: for Emax: 25 min, read-out: % FOLD ACT. (percent maximum fold activation); for Emax / EC1.5: SIRT1 activation. In outline:
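His-tagged human SIRT1 (10 nM, E. coli) incubated 25 min at 25 °C with […] p53-derived acetylated 5TMR peptide and 120 μM βNAD+ in pH 8 Tris-acetate buffer, then formic acid-stopped. Mass spectrometry quantifies acetylated vs deacetylated peptide; nicotinamide and DMSO controls.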

On to `Cc1noc(NC(=O)N2CCOc3ccc(-c4cccc(C(F)(F)F)c4)nc32)c1C` [Compound 509], for which the Emax is > 200% and the EC1.5 entry is “B (EC1.5 1-25 μM)”.

Turning to `Cc1ccc(-c2ccc3c(n2)N(C(=O)Nc2cccc(OC[C@H](O)CO)n2)CCO3)cn1` [Compound 694], the Emax is > 200% and the EC1.5 entry is listed as “B (EC1.5 1-25 μM)”.

With `Cc1ccc(-c2ccc3c(n2)N(C(=O)Nc2ccnc(C)c2)CCCO3)cn1` [Compound 635], the Emax was ≤ 200% and the EC1.5 entry is reported as “C (EC1.5>25 μM)”.

In the case of `CC1(C)CCN(C(=O)Nc2ccncc2)c2nc(-c3cccc(C(F)(F)F)c3)ccc21` [Compound 826, 4,4-dimethyl-N-(pyridin-4-yl)-7-(3-(trifluoromethyl)phenyl)-3,4-dihydro-1,8-naphthyridine-1(2H)-carboxamide], the EC1.5 (concentration giving 1.5-fold activation) is < 1 µM and the Emax was > 200%.

Turning to `O=C(Nc1cccc(N2CCC2)n1)N1CCOc2ccc(-c3cccc(C(F)(F)F)c3)nc21` [Compound 512, N-(6-(azetidin-1-yl)pyridin-2-yl)-6-(3-(trifluoromethyl)phenyl)-2H-pyrido[3,2-b][1,4]oxazine-4(3H)-carboxamide], the Emax was > 200% and the EC1.5 result was “B (EC1.5 1-25 μM)”.

Consider `Cc1cccc(NC(=O)N2CCCCc3ccc(-c4cccc(Cl)c4)nc32)n1` [Compound 733], for which the EC1.5 (concentration giving 1.5-fold activation) is > 25 µM and the Emax was ≤ 200%.

Regarding `CC1(C)CCN(C(=O)Nc2ncccc2F)c2nc(-c3cccc(C(F)(F)F)c3)ccc21` [Compound 842], the EC1.5 (concentration giving 1.5-fold activation) was in the range of 1 to 25 µM and the Emax is ≤ 200%.

Turning to `CC1(C)CN(C(=O)Nc2cncc(F)c2)c2nc(-c3cccc(F)c3)ccc2O1` [Compound 621], the Emax is > 200% and the EC1.5 result is listed as “B (EC1.5 1-25 μM)”.

Regarding `O=C(Oc1cccc(OCC(O)CO)c1)N1CCCc2ccc(-c3cccc(C(F)(F)F)c3)nc21` (centres unmarked) [Compound 641, 3-(2,3-dihydroxypropoxy)phenyl 7-(3-(trifluoromethyl)phenyl)-3,4-dihydro-1,8-naphthyridine-1(2H)-carboxylate], the Emax is ≤ 200% and the EC1.5 entry is given as “B (EC1.5 1-25 μM)”.

`Cc1ccc(-c2ccc3c(n2)N(C(=O)Nc2ccncn2)CCCO3)cn1` [Compound 681]: the Emax is ≤ 200% and the EC1.5 result was “C (EC1.5>25 μM)”.

On to `O=C(Nc1ccncn1)N1CCOc2c(N3CCNCC3)nc(-c3cccc(F)c3)nc21` [Compound 759], for which the EC1.5 (concentration giving 1.5-fold activation) lay within 1 to 25 µM and the Emax is > 200%.

In the case of `O=C(Nc1ccccn1)N1CCCCc2ccc(-c3cccc(C(F)(F)F)c3)nc21` [Compound 812], the EC1.5 (concentration giving 1.5-fold activation) was 1 to 25 µM and the Emax was ≤ 200%.

In the case of `O=C(Nc1ccncc1)N1CCCCc2ccc(-c3cccc(C(F)(F)F)c3)nc21` [Compound 810], the EC1.5 (concentration giving 1.5-fold activation) is 1 to 25 µM and the Emax is > 200%.

In the case of `O=C(Nc1ncccn1)N1CCCc2ccc(-c3cccc(Cl)c3)nc21` [Compound 667], the Emax is > 200% and the EC1.5 entry was “B (EC1.5 1-25 μM)”.

In the case of `CN1C(=O)CN(C(=O)Nc2cccc(N3CCOCC3)n2)c2nc(-c3cccc(C(F)(F)F)c3)ccc21` [Compound 563], the Emax was > 200% and the EC1.5 result is recorded as “A (EC1.5<1.0 μM)”.

Take `CC1(C)CCN(C(=O)Nc2ccncc2F)c2nc(-c3cccc(C(F)(F)F)c3)ccc21` [Compound 847]: the EC1.5 (concentration giving 1.5-fold activation) is > 25 µM and the Emax was ≤ 200%.

With `Cc1cc(C)nc(NC(=O)N2CCCOc3ccc(-c4cccc(Cl)c4)nc32)c1` [Compound 857], the EC1.5 (concentration giving 1.5-fold activation) was > 25 µM and the Emax was ≤ 200%.

As to `Cc1cc(NC(=O)N2CCOc3c(N4CCOCC4)nc(-c4cccc(F)c4)nc32)cc(C)n1` [Compound 739], the EC1.5 (concentration giving 1.5-fold activation) was in the range of 1 to 25 µM and the Emax is ≤ 200%.

On to `CCN1C(=O)CCN(C(=O)Nc2ccc(F)cn2)c2nc(-c3cccc(Cl)c3)ccc21` [Compound 791], for which the EC1.5 (concentration giving 1.5-fold activation) is > 25 µM and the Emax was ≤ 200%.

Consider `O=C(Nc1ccc(F)cn1)N1CCCCc2ccc(-c3cccc(Cl)c3)nc21` [Compound 735], for which the EC1.5 (concentration giving 1.5-fold activation) is > 25 µM and the Emax was ≤ 200%.

In the case of `O=C(Nc1ccncc1)N1CCCc2ccc(-c3cccc(Cl)c3)nc21` [Compound 651], the Emax was > 200% and the EC1.5 result is “A (EC1.5<1.0 μM)”.

In the case of `Cc1cnccc1NC(=O)N1CCC(C)c2ccc(-c3cccc(C(F)(F)F)c3)nc21` (centres unmarked) [Compound 784], the EC1.5 (concentration giving 1.5-fold activation) lay within 1 to 25 µM and the Emax was > 200%.

On to `Cc1cc(NC(=O)N2CCOc3c(N(C)C)nc(-c4cccc(F)c4)nc32)cc(C)n1` [Compound 727], for which the EC1.5 (concentration giving 1.5-fold activation) was < 1 µM and the Emax is ≤ 200%.

For the compound `O=C(Nc1cc(C(F)(F)F)ccn1)N1CCOc2ccc(-c3cccc(C(F)(F)F)c3)nc21` [Compound 565], the Emax is ≤ 200% and the EC1.5 entry is “B (EC1.5 1-25 μM)”.

On to `CCN1CCCN(C(=O)Nc2ccccn2)c2nc(-c3cccc(Cl)c3)ccc21` [Compound 790], for which the EC1.5 (concentration giving 1.5-fold activation) was > 25 µM and the Emax is ≤ 200%.

With `Cc1cccc(-c2ccc3c(n2)N(C(=O)Nc2ccncn2)CCO3)c1` [Compound 517], the Emax is > 200% and the EC1.5 entry was “A (EC1.5<1.0 μM)”.

Take `Cc1cc(NC(=O)N2CCCC(=O)c3ccc(-c4cccc(C(F)(F)F)c4)nc32)ccn1` [Compound 820]: the EC1.5 (concentration giving 1.5-fold activation) is < 1 µM and the Emax was > 200%.

As for `O=C(Oc1cccnc1)N1CCOc2ccc(-c3cccc(C(F)(F)F)c3)nc21` [Compound 562], the Emax was ≤ 200% and the EC1.5 entry was “C (EC1.5>25 μM)”.

As to `O=C(Nc1ccncc1)N1CCOc2c(N3CCNCC3)nc(-c3cccc(F)c3)nc21` [Compound 738, 2-(3-fluorophenyl)-4-(piperazin-1-yl)-N-(pyridin-4-yl)-6H-pyrimido[5,4-b][1,4]oxazine-8(7H)-carboxamide], the EC1.5 (concentration giving 1.5-fold activation) was > 25 µM and the Emax is ≤ 200%.

For `O=C(Nc1ccc(CN2CCOCC2)nc1)N1CCOc2ccc(-c3cccc(C(F)(F)F)c3)nc21` [Compound 507, N-(6-(morpholinomethyl)pyridin-3-yl)-6-(3-(trifluoromethyl)phenyl)-2H-pyrido[3,2-b][1,4]oxazine-4(3H)-carboxamide], the Emax was > 200% and the EC1.5 result was “A (EC1.5<1.0 μM)”.

For the compound `CCN1C(=O)CCN(C(=O)Nc2ccnc(OC)n2)c2nc(-c3cccc(Cl)c3)ccc21` [Compound 792], the EC1.5 (concentration giving 1.5-fold activation) is > 25 µM and the Emax is ≤ 200%.

Regarding `Cc1cncc(NC(=O)N2CCOc3ncc(-c4cccc(C(F)(F)F)c4)nc32)c1` [Compound 725], the EC1.5 (concentration giving 1.5-fold activation) was 1 to 25 µM and the Emax is > 200%.

Regarding `O=C(Nc1ccncc1F)N1CCOc2cnc(-c3cccc(C(F)(F)F)c3)nc21` [Compound 716], the EC1.5 (concentration giving 1.5-fold activation) was in the range of 1 to 25 µM and the Emax is > 200%.

Take `O=C(Nc1ccncc1F)N1CCCCc2ccc(-c3cccc(Cl)c3)nc21` [Compound 734]: the EC1.5 (concentration giving 1.5-fold activation) was 1 to 25 µM and the Emax is > 200%.

Regarding `Cc1ccc(-c2ccc3c(n2)N(C(=O)Nc2cc(C)nc(C)c2)CCCO3)cn1` [Compound 637], the Emax is > 200% and the EC1.5 result is “B (EC1.5 1-25 μM)”.

With `Cc1cnccc1NC(=O)N1CCC(C)(C)c2ccc(-c3cccc(C(F)(F)F)c3)nc21` [Compound 834, 4,4-dimethyl-N-(3-methylpyridin-4-yl)-7-(3-(trifluoromethyl)phenyl)-3,4-dihydro-1,8-naphthyridine-1(2H)-carboxamide], the EC1.5 (concentration giving 1.5-fold activation) lay in the range of 1 to 25 µM and the Emax was ≤ 200%.

Take `CN1C(=O)CN(C(=O)Nc2ccncn2)c2nc(-c3cccc(C(F)(F)F)c3)ccc21` [Compound 526]: the Emax is > 200% and the EC1.5 entry was “B (EC1.5 1-25 μM)”.

`Cc1cncc(NC(=O)N2CCCOc3ccc(-c4ccnc(C)c4)nc32)c1` [Compound 655]: the Emax was ≤ 200% and the EC1.5 result was “B (EC1.5 1-25 μM)”.

In the case of `Cc1cc(C)nc(NC(=O)N2CCOc3ncc(-c4cccc(C(F)(F)F)c4)nc32)c1` [Compound 741], the EC1.5 (concentration giving 1.5-fold activation) lay within 1 to 25 µM and the Emax is > 200%.

As to `O=C1CCCN(C(=O)Nc2cccnc2)c2nc(-c3cccc(Cl)c3)ccc21` [Compound 747, 2-(3-chlorophenyl)-5-oxo-N-(pyridin-3-yl)-7,8-dihydro-5H-pyrido[2,3-b]azepine-9(6H)-carboxamide], the EC1.5 (concentration giving 1.5-fold activation) lay within 1 to 25 µM and the Emax was > 200%.
